In US20210355115A1, “ISOXAZOLE CARBOXAMIDE COMPOUNDS AND USES THEREOF” (Novartis AG, priority 2018, published 2021):

What follows are compounds tested on Atoh1 (assay: Atoh1 induction assay in mouse cerebellar neural precursor cells (Atoh1-GFP reporter assay)). Conditions: maximum fold difference over DMSO control (=1), cerebellar NPCs from Atoh1-GFP mice, 10 doses 50 μM to 200 nM, 72 hours treatment, read-out: Fold Difference (ratio of Atoh1-GFP average intensity_FC to DMSO_Max).
Assay type: cell-based
Procedure: Atoh1 induction assay was conducted with in vitro cultured cerebellar neural precursor cells isolated from neonatal transgenic Atoh1-GFP mice. Atoh1 expression is mainly regulated by the enhancer, and the nuclear GFP was driven by the cloned enhancer sequence at 3′ of Atoh1 which had high conservation among mammalians So Atoh1 induction could be reflected by GFP activation in cerebellar neural precursor cells (Helms et al., Development 2000; 127: 1185-1196; Lumpkin et al., Gene Expression Patterns 2003; 3: 389-395). Postnatal 3 days pups were dissected for cerebellum tissue isolation. The cerebellum tissue was cut into small pieces, and dissociated with 0.05% Trypsin for about 10 minutes at 37° C., and then filtered with a 70 uM cell strainer. The cells were cultured as neuropsheres for the first 2 days in ultra-low attachment dish/well-plate with DMEM/F12+1% N2 &2% B27 with 1% P/S, 20 ng/ml rhFGF2 and 20 ng/ml rhEGF (R&D Systems). Then the spheres were plated to the matrigel (1:30 diluted in DMEM/F12)-coated tissue culture dish for monolayer culture. After 4.5-5.5 days culture in vitro (DIV), cells were dissociated with 0.05% trypsin into single cells, and frozen after cell number calculation.
The cerebellar neural precursor cells (NPCs) were re-thawed from stock and cultured for another 2 days before used for Atoh1 induction assay. On the first day of assay, NPCs were seeded into matrigel-coated 384 well plates (Black view-plate, PE) at 2500 cells/well. After over-night culture, the NPCs were treated with representative compounds of the present disclosure with 1:2 serial dilutions for 10 doses, from 50 μM to 200 nM, with DMSO as negative control. After 72 hours treatment without medium change, the cells were fixed with 4% formalin for staining Assay plates were stained with GFP antibody (Abcam, #13970, 1:1000) to amplify endogenous GFP signal and then read by Cellomics. […] Table 1 Atoh1 activation by treatment of Compounds of the present disclosure (Atoh1-GFP reporter assay in cerebellar NPCs)

SMILES	maximal fold induction
N#C[C@H]1CCN(CCCCCNC(=O)c2cc(-c3ccc(F)cc3)on2)C[C@H]1O (single isomer, unassigned) [Example 2]	11.5
NC(=O)[C@@H]1CCN(CCCCCNC(=O)c2cc(-c3cccs3)on2)C[C@@H]1O (stereo in doubt) [Example 30, N-(5-(4-carbamoyl-3-hydroxypiperidin-1-yl)pentyl)-5-(thiophen-2-yl)isoxazole-3-carboxamide]	16.1
N#C[C@@H]1CN(CCCCCNC(=O)c2cc(-c3cccs3)on2)C[C@@H]1O [34 cis]	11.2
NC(=O)[C@H](O)CN1CCN(CCCCCNC(=O)c2cc(-c3cccs3)on2)CC1 [37 R]	29.2
NC(=O)[C@@H](O)CN1CCN(CCCCCNC(=O)c2cc(-c3cccs3)on2)CC1 [37 S]	31.5
N#C[C@@H]1CN(CCCCCNC(=O)c2cc(-c3cccs3)on2)CC[C@@H]1C(N)=O [Example 1, N-(5-((3S,4S)-4-carbamoyl-3-cyanopiperidin-1-yl)pentyl)-5-(thiophen-2-yl)isoxazole-3-carboxamide]	12.7
O=C(NCCCCCN1CC(S(=O)(=O)NC2COC2)C1)c1cc(-c2cccs2)on1 [Example 3, N-(5-(3-(N-(oxetan-3-yl)sulfamoyl)azetidin-1-yl)pentyl)-5-(thiophen-2-yl)isoxazole-3-carboxamide]	11.2
N#CCCNS(=O)(=O)C1CN(CCCCCNC(=O)c2cc(-c3cccs3)on2)C1 [Example 4, N-(5-(3-(N-(2-cyanoethyl)sulfamoyl)azetidin-1-yl)pentyl)-5-(thiophen-2-yl)isoxazole-3-carboxamide]	18.3
CNC(=O)COC(=O)NC1CN(CCCCCNC(=O)c2cc(-c3cccs3)on2)C1 [Example 5]	17.2
NS(=O)(=O)C1CCCN(CCCCCNC(=O)c2cc(-c3cccs3)on2)C1 (centres unmarked) [Example 6, N-(5-(3-sulfamoylpiperidin-1-yl)pentyl)-5-(thiophen-2-yl)isoxazole-3-carboxamide]	20.1
NS(=O)(=O)C1CCN(CCCCCNC(=O)c2cc(-c3cccs3)on2)C1 (centres unmarked) [Example 7, N-(5-(3-sulfamoylpyrrolidin-1-yl)pentyl)-5-(thiophen-2-yl)isoxazole-3-carboxamide]	17.2
NC(=O)C1CCN(CCCCCNC(=O)c2cc(-c3ccc(F)cc3)on2)C1 (centres unmarked) [Example 8, N-(5-(3-carbamoylpyrrolidin-1-yl)pentyl)-5-(4-fluorophenyl)isoxazole-3-carboxamide]	14.6
NC(=O)C1(CO)CN(CCCCCNC(=O)c2cc(-c3cccs3)on2)C1 [Example 9, N-(5-(3-carbamoyl-3-(hydroxymethyl)azetidin-1-yl)pentyl)-5-(thiophen-2-yl)isoxazole-3-carboxamide]	24.4
NC(=O)C1(CO)CN(CCCCCNC(=O)c2cc(-c3ccc(F)cc3)on2)C1 [Example 10, N-(5-(3-carbamoyl-3-(hydroxymethyl)azetidin-1-yl)pentyl)-5-(4-fluorophenyl)isoxazole-3-carboxamide]	19.1
CC1(C(N)=O)CN(CCCCCNC(=O)c2cc(-c3cccs3)on2)C1 [Example 11, N-(5-(3-carbamoyl-3-methylazetidin-1-yl)pentyl)-5-(thiophen-2-yl)isoxazole-3-carboxamide]	33.3
CC1(C(N)=O)CN(CCCCCNC(=O)c2cc(-c3ccc(F)cc3)on2)C1 [Example 12, N-(5-(3-carbamoyl-3-methylazetidin-1-yl)pentyl)-5-(4-fluorophenyl)isoxazole-3-carboxamide]	22.4
NC(=O)C1CN(CCCCCNC(=O)c2cc(-c3cccs3)on2)CC1O (centres unmarked) [Example 13, N-(5-(3-carbamoyl-4-hydroxypyrrolidin-1-yl)pentyl)-5-(thiophen-2-yl)isoxazole-3-carboxamide]	32.5
NS(=O)(=O)C1CCN(CCCCCNC(=O)c2cc(-c3cccs3)on2)CC1 [Example 14, N-(5-(4-sulfamoylpiperidin-1-yl)pentyl)-5-(thiophen-2-yl)isoxazole-3-carboxamide]	23.8

SMILES	maximal fold induction
NS(=O)(=O)C1CCN(CCCCCNC(=O)c2cc(-c3ccc(F)cc3)on2)CC1 [Example 15, 5-(4-fluorophenyl)-N-(5-(4-sulfamoylpiperidin-1-yl)pentyl)isoxazole-3-carboxamide]	18.9
N#C[C@H]1CCN(CCCCCNC(=O)c2cc(-c3cccs3)on2)C[C@@H]1O [Example 16, N-(5-((3R,4R)-4-cyano-3-hydroxypiperidin-1-yl)pentyl)-5-(thiophen-2-yl)isoxazole-3-carboxamide]	32.3
NC(=O)CCN1CCN(CCCCCNC(=O)c2cc(-c3cccs3)on2)CC1 [Example 17, N-(5-(4-(3-amino-3-oxopropyl)piperazin-1-yl)pentyl)-5-(thiophen-2-yl)isoxazole-3-carboxamide]	20.4
NS(=O)(=O)CCN1CCN(CCCCCNC(=O)c2cc(-c3cccs3)on2)CC1 [Example 19, N-(5-(4-(2-sulfamoylethyl)piperazin-1-yl)pentyl)-5-(thiophen-2-yl)isoxazole-3-carboxamide]	16.3
NC(=O)C1CCN(CCCCCNC(=O)c2cc(-c3cccs3)on2)CC1 [Example 20, N-(5-(4-cathamoylpiperidin-1-yl)pentyl)-5-(thiophen-2-yl)isoxazole-3-carboxamide]	14.7
NC(=O)C1(O)CN(CCCCCNC(=O)c2cc(-c3cccs3)on2)C1 [Example 21, N-(5-(3-carbamoyl-3-hydroxyazetidin-1-yl)pentyl)-5-(thiophen-2-yl)isoxazole-3-carboxamide]	20.8
CNC(=O)C1CN(CCCCCNC(=O)c2cc(-c3ccc(F)s3)on2)C1 [Example 22, 5-(5-fluorothiophen-2-yl)-N-(5-(3-(methylcarbamoyl)azetidin-1-yl)pentyl)isoxazole-3-carboxamide]	16.8
NC(=O)C1CN(CCCCCNC(=O)c2cc(-c3ccc(F)s3)on2)C1 [Example 23, N-(5-(3-carbamoylazetidin-1-yl)pentyl)-5-(5-fluorothiophen-2-yl)isoxazole-3-carboxamide]	24.3
CC(C#N)NC(=O)C1CN(CCCCCNC(=O)c2cc(-c3ccc(F)cc3)on2)C1 (centres unmarked) [Example 24, N-(5-(3-((1-cyanoethyl)carbamoyl)azetidin-1-yl)pentyl)-5-(4-fluorophenyl)isoxazole-3-carboxamide]	18.3
CN1CCN(CCCCCNC(=O)c2cc(-c3cccs3)on2)CC1C(N)=O (centres unmarked) [Example 25, N-(5-(3-carbamoyl-4-methylpiperazin-1-yl)pentyl)-5-(thiophen-2-yl)isoxazole-3-carboxamide]	13.1
NC(=O)C1(O)CCN(CCCCCNC(=O)c2cc(-c3cccs3)on2)CC1 [Example 26, N-(5-(4-carbamoyl-4-hydroxypiperidin-1-yl)pentyl)-5-(thiophen-2-yl)isoxazole-3-carboxamide]	16.3
O=C(NCCCCCN1CC(C(=O)N[C@H]2CCC[C@H]2O)C1)c1cc(-c2ccc(F)cc2)on1 [Example 27, 5-(4-fluorophenyl)-N-(5-(3-(((1S,2R)-2-hydroxycyclopentyl)carbamoyl)azetidin-1-yl)pentyl)isoxazole-3-carboxamide]	13.5
NC(=O)[C@@H]1CCN(CCCCCNC(=O)c2cc(-c3cccs3)on2)C[C@@H]1F [Example 28-cis, N-(5-((3R,4S)-4-carbamoyl-3-fluoropiperidin-1-yl)pentyl)-5-(thiophen-2-yl)isoxazole-3-carboxamide]	11.9
NC(=O)[C@@H]1CCN(CCCCCNC(=O)c2cc(-c3cccs3)on2)C[C@H]1F [Example 28-trans, N-(5-((3S,4S)-4-carbamoyl-3-fluoropiperidin-1-yl)pentyl)-5-(thiophen-2-yl)isoxazole-3-carboxamide]	16.8
N#C[C@H]1CCN(CCCCCNC(=O)c2cc(-c3cccs3)on2)C[C@@H]1C(N)=O [Example 29, N-(5-((3R,4S)-3-carbamoyl-4-cyanopiperidin-1-yl)pentyl)-5-(thiophen-2-yl)isoxazole-3-carboxamide]	15.4
NC(=O)C1CCN(CCCCCNC(=O)c2cc(-c3ccc(F)cc3)on2)CC1O (centres unmarked) [Example 31, N-(5-(4-carbamoyl-3-hydroxypiperidin-1-yl)pentyl)-5-(4-fluorophenyl)isoxazole-3-carboxamide]	14.7
O=C(NCCCCCN1CC(C(=O)NC2COCC2O)C1)c1cc(-c2cccs2)on1 (centres unmarked) [Example 36, N-(5-(3-((4-hydroxytetrahydrofuran-3-yl)carbamoyl)azetidin-1-yl)pentyl)-5-(thiophen-2-yl)isoxazole-3-carboxamide]	13.6
